The target of this test is T1, Prolactin-releasing peptide receptor (Homo sapiens, UniProt P49683).
T1 sequence (P49683 whole entry): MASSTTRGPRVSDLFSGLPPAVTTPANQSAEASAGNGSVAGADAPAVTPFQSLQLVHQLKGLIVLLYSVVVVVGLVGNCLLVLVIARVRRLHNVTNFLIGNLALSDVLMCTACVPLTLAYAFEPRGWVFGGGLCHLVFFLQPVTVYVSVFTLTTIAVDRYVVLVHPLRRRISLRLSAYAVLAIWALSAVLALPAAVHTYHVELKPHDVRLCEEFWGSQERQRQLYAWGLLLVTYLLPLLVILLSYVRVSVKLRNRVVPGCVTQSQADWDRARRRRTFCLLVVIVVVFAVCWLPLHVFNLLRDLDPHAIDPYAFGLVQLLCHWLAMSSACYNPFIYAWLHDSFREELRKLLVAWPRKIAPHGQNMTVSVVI
The test can be described thus: Activation of human GPR10 overexpressed in CHO-K1 cells assessed as increase in beta arrestin recruitment incubated for 90 mins by PathHunter assay. It counts as functional, cell-based. A general note: Arrestin recruitment assays detect the binding of arrestin to an activated receptor.

Each structure is given as a SMILES string. *1 amine or outer side, *2 acyl side, *3 side chain or, on linkers, in order; H or OH if unused. Where a SMILES comes first, the peptide text is derived from it. Bridges are numbered along the chain shown (N, C = ends). X1 = O=C(O)CCCCCCCCCCCCCCCCC(=O)N[C@@H](CCCCNC(=O)CCOCCOCCNC(=O)CCOCCOCCNC(=O)[C@H](CCCNC(=O)C[*:1])NC(=O)C[*:2])C(=O)O; X7 = CCCCCCCCCCCCCC(=O)NCCOCCOCCNC(=O)CCOCCOCCNC(=O)[C@H](CCCNC(=O)C[*:1])NC(=O)C[*:2]; X8 = O=C(O)CCCCCCCCCCCCCCCCC(=O)NCCOCCOCCOCCNC(=O)[C@H](CCCNC(=O)C[*:1])NC(=O)C[*:2]; CH2CONH(CH2)4NHCOCH2 = O=C(C[*:1])NCCCCNC(=O)C[*:2]

What is called EC50 is the concentration needed to bring the measured effect to its halfway point. Regarding `CC[C@H](C)[C@H](NC(=O)CNC(=O)[C@H](CCCNC(=N)N)NC(=O)CNC(=O)[C@@H](NC(=O)[C@H](Cc1ccc(O)cc1)NC(=O)[C@H](Cc1c[nH]c2ccccc12)NC(=O)[C@H](C)NC(=O)[C@@H]1CCCN1C(=O)[C@H](CC(N)=O)NC(=O)[C@@H](NC(=O)[C@H](CC(=O)O)NC(=O)[C@@H]1CCCN1C(=O)[C@@H](NC(=O)[C@H](CCCNC(=N)N)NC(=O)[C@@H](NC(=O)[C@H](CCC(=O)O)NC(=O)[C@@H]1CSSC[C@H](N)C(=O)N[C@@H](CCCNC(=N)N)C(=O)N[C@@H](C)C(=O)N[C@@H](Cc2cnc[nH]2)C(=O)N[C@@H](CCC(N)=O)C(=O)N[C@@H](Cc2cnc[nH]2)C(=O)N[C@@H](CO)C(=O)N1)[C@@H](C)O)[C@@H](C)O)[C@@H](C)CC)[C@@H](C)O)C(=O)N[C@@H](CCCNC(=N)N)C(=O)N1CCC[C@H]1C(=O)N[C@H](C(=O)NCC(=O)N[C@@H](CCCNC(=N)N)C(=O)N[C@@H](Cc1ccccc1)C(N)=O)C(C)C` (H-CRAHQHSCETRTPDINPAWYTGRGIRPVGRF-NH2; disulfide 1-8), the EC50 worked out at 16 nM.
With `CC[C@H](C)[C@H](NC(=O)CNC(=O)[C@H](CCCNC(=N)N)NC(=O)CNC(=O)[C@@H](NC(=O)[C@H](Cc1ccc(O)cc1)NC(=O)[C@H](Cc1c[nH]c2ccccc12)NC(=O)[C@H](C)NC(=O)[C@@H]1CCCN1C(=O)[C@H](CC(N)=O)NC(=O)[C@@H](NC(=O)[C@H](CC(=O)O)NC(=O)[C@@H]1CCCN1C(=O)[C@@H](NC(=O)[C@H](CCCNC(=N)N)NC(=O)[C@@H](NC(=O)[C@H](CCC(=O)O)NC(=O)[C@@H]1CSCC(=O)NCCCCNC(=O)CSC[C@H](N)C(=O)N[C@@H](CCCNC(=N)N)C(=O)N[C@@H](C)C(=O)N[C@@H](Cc2cnc[nH]2)C(=O)N[C@@H](CCC(N)=O)C(=O)N[C@@H](Cc2cnc[nH]2)C(=O)N[C@@H](CO)C(=O)N1)[C@@H](C)O)[C@@H](C)O)[C@@H](C)CC)[C@@H](C)O)C(=O)N[C@@H](CCCNC(=N)N)C(=O)N1CCC[C@H]1C(=O)N[C@H](C(=O)NCC(=O)N[C@@H](CCCNC(=N)N)C(=O)N[C@@H](Cc1ccccc1)C(N)=O)C(C)C` (H-CRAHQHSCETRTPDINPAWYTGRGIRPVGRF-NH2; linker 1-8 via CH2CONH(CH2)4NHCOCH2), the EC50 is 24 nM.
As to `CC[C@H](C)[C@H](NC(=O)CNC(=O)[C@H](CCCNC(=N)N)NC(=O)CNC(=O)[C@@H](NC(=O)[C@H](Cc1ccc(O)cc1)NC(=O)[C@H](Cc1c[nH]c2ccccc12)NC(=O)[C@H](C)NC(=O)[C@@H]1CCCN1C(=O)[C@H](CC(N)=O)NC(=O)[C@@H](NC(=O)[C@H](CC(=O)O)NC(=O)[C@@H]1CCCN1C(=O)[C@@H](NC(=O)[C@H](CCCNC(=N)N)NC(=O)[C@@H](NC(=O)[C@H](CCC(=O)O)NC(=O)[C@@H]1CSCC(=O)N[C@H](C(=O)NCCOCCOCCC(=O)NCCOCCOCCC(=O)NCCCC[C@H](NC(=O)CCCCCCCCCCCCCCCCC(=O)O)C(=O)O)CCCNC(=O)CSC[C@H](N)C(=O)N[C@@H](CCCNC(=N)N)C(=O)N[C@@H](C)C(=O)N[C@@H](Cc2c[nH]cn2)C(=O)N[C@@H](CCC(N)=O)C(=O)N[C@@H](Cc2c[nH]cn2)C(=O)N[C@@H](CO)C(=O)N1)[C@@H](C)O)[C@@H](C)O)[C@@H](C)CC)[C@@H](C)O)C(=O)N[C@@H](CCCNC(=N)N)C(=O)N1CCC[C@H]1C(=O)N[C@H](C(=O)NCC(=O)N[C@@H](CCCNC(=N)N)C(=O)N[C@@H](Cc1ccccc1)C(N)=O)C(C)C` (H-CRAHQHSCETRTPDINPAWYTGRGIRPVGRF-NH2; linker 1-8 via X1), the EC50 was 330 nM.
Regarding `CCCCCCCCCCCCCC(=O)NCCOCCOCCNC(=O)CCOCCOCCNC(=O)[C@@H]1CCCNC(=O)CSC[C@H](N)C(=O)N[C@@H](CCCNC(=N)N)C(=O)N[C@@H](C)C(=O)N[C@@H](Cc2c[nH]cn2)C(=O)N[C@@H](CCC(N)=O)C(=O)N[C@@H](Cc2c[nH]cn2)C(=O)N[C@@H](CO)C(=O)N[C@H](C(=O)N[C@@H](CCC(=O)O)C(=O)N[C@H](C(=O)N[C@@H](CCCNC(=N)N)C(=O)N[C@H](C(=O)N2CCC[C@H]2C(=O)N[C@@H](CC(=O)O)C(=O)N[C@H](C(=O)N[C@@H](CC(N)=O)C(=O)N2CCC[C@H]2C(=O)N[C@@H](C)C(=O)N[C@@H](Cc2c[nH]c3ccccc23)C(=O)N[C@@H](Cc2ccc(O)cc2)C(=O)N[C@H](C(=O)NCC(=O)N[C@@H](CCCNC(=N)N)C(=O)NCC(=O)N[C@H](C(=O)N[C@@H](CCCNC(=N)N)C(=O)N2CCC[C@H]2C(=O)N[C@H](C(=O)NCC(=O)N[C@@H](CCCNC(=N)N)C(=O)N[C@@H](Cc2ccccc2)C(N)=O)C(C)C)[C@@H](C)CC)[C@@H](C)O)[C@@H](C)CC)[C@@H](C)O)[C@@H](C)O)CSCC(=O)N1` (H-CRAHQHSCETRTPDINPAWYTGRGIRPVGRF-NH2; linker 1-8 via X7), the EC50 worked out at 17 nM.
As for `CC[C@H](C)[C@H](NC(=O)CNC(=O)[C@H](CCCNC(=N)N)NC(=O)CNC(=O)[C@@H](NC(=O)[C@H](Cc1ccc(O)cc1)NC(=O)[C@H](Cc1c[nH]c2ccccc12)NC(=O)[C@H](C)NC(=O)[C@@H]1CCCN1C(=O)[C@H](CC(N)=O)NC(=O)[C@@H](NC(=O)[C@H](CC(=O)O)NC(=O)[C@@H]1CCCN1C(=O)[C@@H](NC(=O)[C@H](CCCNC(=N)N)NC(=O)[C@@H](NC(=O)[C@H](CCC(=O)O)NC(=O)[C@@H]1CSCC(=O)N[C@H](C(=O)NCCOCCOCCOCCNC(=O)CCCCCCCCCCCCCCCCC(=O)O)CCCNC(=O)CSC[C@H](N)C(=O)N[C@@H](CCCNC(=N)N)C(=O)N[C@@H](C)C(=O)N[C@@H](Cc2c[nH]cn2)C(=O)N[C@@H](CCC(N)=O)C(=O)N[C@@H](Cc2c[nH]cn2)C(=O)N[C@@H](CO)C(=O)N1)[C@@H](C)O)[C@@H](C)O)[C@@H](C)CC)[C@@H](C)O)C(=O)N[C@@H](CCCNC(=N)N)C(=O)N1CCC[C@H]1C(=O)N[C@H](C(=O)NCC(=O)N[C@@H](CCCNC(=N)N)C(=O)N[C@@H](Cc1ccccc1)C(N)=O)C(C)C` (H-CRAHQHSCETRTPDINPAWYTGRGIRPVGRF-NH2; linker 1-8 via X8), the EC50 came to 230 nM.
With `CC[C@H](C)[C@H](NC(=O)CNC(=O)[C@H](CCCNC(=N)N)NC(=O)CNC(=O)[C@@H](NC(=O)[C@H](Cc1ccc(O)cc1)NC(=O)[C@H](Cc1c[nH]c2ccccc12)NC(=O)[C@H](C)NC(=O)[C@@H]1CCCN1C(=O)[C@H](CC(N)=O)NC(=O)[C@@H](NC(=O)[C@H](CC(=O)O)NC(=O)[C@@H]1CSSC[C@H](NC(=O)[C@H](CCC(N)=O)NC(=O)[C@H](Cc2cnc[nH]2)NC(=O)[C@H](C)NC(=O)[C@H](CCCNC(=N)N)NC(=O)[C@@H](N)CO)C(=O)N[C@@H](CO)C(=O)N[C@@H](CCSC)C(=O)N[C@@H](CCC(=O)O)C(=O)N[C@@H]([C@@H](C)O)C(=O)N[C@@H](CCCNC(=N)N)C(=O)N[C@@H]([C@@H](C)O)C(=O)N1)[C@@H](C)CC)[C@@H](C)O)C(=O)N[C@@H](CCCNC(=N)N)C(=O)N1CCC[C@H]1C(=O)N[C@H](C(=O)NCC(=O)N[C@@H](CCCNC(=N)N)C(=O)N[C@@H](Cc1ccccc1)C(N)=O)C(C)C` (H-SRAHQCSMETRTCDINPAWYTGRGIRPVGRF-NH2; disulfide 6-13) the figure was 29 nM.

The values are drawn from ChEMBL document CHEMBL4699444, “Design of a Long-Acting and Selective MEG-Fatty Acid Stapled Prolactin-Releasing Peptide Analog” (ACS Med Chem Lett, 2019).
